From publication PMC6028563, “Probing Substituents in the 1- and 3-Position: Tetrahydropyrazino-Annelated Water-Soluble Xanthine Derivatives as Multi-Target Drugs With Potent Adenosine Receptor Antagonistic Activity” (Frontiers in Chemistry, 2018)
Values joined by “and” are separate entries in the source; they are usually repeats but may differ in a detail not shown here. Identical values can stand only once. Like-named read-outs stand apart in the source and are kept apart here.

How the values were obtained:
[1] = target: T1, human A2A AR (Homo sapiens, UniProt P29274); details: cited from earlier work; for Ki: human (h), 2007, 2013
T1 construct: expressed in transfected cells; host or cells: CHO cells

[2] = target: T2, rat A2A AR (Rattus norvegicus, UniProt P30543); details: cited from earlier work
T2 construct: A2A ARs of rat brain striatal membrane preparations; from tissue; host or cells: rat brain striatum membranes

[3] = target: T3, recombinant human MAO-B (Homo sapiens, UniProt P27338); details: human (h), 2013, cited from earlier work
T3 construct: purchased Sigma-Aldrich M7441; host or cells: baculovirus-infected insect cells
T3 sequence (P27338 1-520): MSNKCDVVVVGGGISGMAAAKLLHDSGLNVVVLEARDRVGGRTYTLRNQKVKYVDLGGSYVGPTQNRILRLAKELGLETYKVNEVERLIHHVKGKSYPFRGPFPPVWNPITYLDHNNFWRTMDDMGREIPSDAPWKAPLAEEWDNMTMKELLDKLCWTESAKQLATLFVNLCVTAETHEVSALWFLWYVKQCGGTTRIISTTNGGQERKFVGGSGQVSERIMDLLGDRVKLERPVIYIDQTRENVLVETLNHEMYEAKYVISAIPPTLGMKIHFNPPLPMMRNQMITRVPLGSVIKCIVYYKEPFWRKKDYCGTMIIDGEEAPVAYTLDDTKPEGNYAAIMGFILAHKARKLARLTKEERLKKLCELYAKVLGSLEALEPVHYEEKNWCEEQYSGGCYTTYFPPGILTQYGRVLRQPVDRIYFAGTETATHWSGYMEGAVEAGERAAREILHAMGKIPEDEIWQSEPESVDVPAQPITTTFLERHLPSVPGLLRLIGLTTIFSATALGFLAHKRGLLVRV

[4] = target: T4, human A1 AR (Homo sapiens, UniProt P30542); details: cited from earlier work
T4 construct: expressed in transfected cells; host or cells: CHO cells
T4 sequence (P30542 1-326): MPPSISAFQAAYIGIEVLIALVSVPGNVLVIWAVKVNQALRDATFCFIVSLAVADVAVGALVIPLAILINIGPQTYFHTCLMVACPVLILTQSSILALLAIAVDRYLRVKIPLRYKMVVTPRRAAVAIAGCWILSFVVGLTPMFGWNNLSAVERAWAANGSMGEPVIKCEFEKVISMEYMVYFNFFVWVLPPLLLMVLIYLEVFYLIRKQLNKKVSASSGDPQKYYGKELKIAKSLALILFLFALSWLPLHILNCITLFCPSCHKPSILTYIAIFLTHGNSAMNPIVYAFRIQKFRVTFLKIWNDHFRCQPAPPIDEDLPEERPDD

[5] = target: T5, human A2B AR (Homo sapiens, UniProt P29275); details: cited from earlier work
T5 construct: expressed in transfected cells; host or cells: CHO cells
T5 sequence (P29275 1-332): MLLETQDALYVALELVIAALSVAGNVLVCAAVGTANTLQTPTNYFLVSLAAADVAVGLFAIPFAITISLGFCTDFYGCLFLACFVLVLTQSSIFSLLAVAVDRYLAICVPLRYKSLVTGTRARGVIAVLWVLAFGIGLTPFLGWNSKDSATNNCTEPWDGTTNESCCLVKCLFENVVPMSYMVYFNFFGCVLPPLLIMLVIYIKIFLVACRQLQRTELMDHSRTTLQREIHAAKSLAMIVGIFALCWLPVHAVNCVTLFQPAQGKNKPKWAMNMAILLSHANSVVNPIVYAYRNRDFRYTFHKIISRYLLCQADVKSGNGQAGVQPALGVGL

[6] = target: T6, human A3 AR (Homo sapiens, UniProt P0DMS8); details: cited from earlier work; for Ki: human (h)
T6 construct: expressed in transfected cells; host or cells: CHO cells
T6 sequence (P0DMS8 1-318): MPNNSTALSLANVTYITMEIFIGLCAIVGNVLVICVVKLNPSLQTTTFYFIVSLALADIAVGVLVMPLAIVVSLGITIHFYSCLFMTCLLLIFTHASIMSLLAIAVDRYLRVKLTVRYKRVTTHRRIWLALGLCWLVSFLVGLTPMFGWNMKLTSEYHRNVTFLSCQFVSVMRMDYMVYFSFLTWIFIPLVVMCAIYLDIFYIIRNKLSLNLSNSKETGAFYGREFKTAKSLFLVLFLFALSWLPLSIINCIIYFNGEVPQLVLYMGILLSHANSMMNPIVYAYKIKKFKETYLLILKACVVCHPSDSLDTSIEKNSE

[7] = test system: haloperidol-induced catalepsy; parameters: method as in Wang et al., 2017; Robinson et al., 2015; details: rat; ref Wang et al., 2017; Robinson et al., 2015; cited from earlier work
[8] = test system: rat MAO-B; parameters: method as in Brunschweiger et al., 2014, 2016; details: rat (r); Figure 3 and introduction; ref Brunschweiger et al., 2014, 2016; cited from earlier work
[9] = target: T7, recombinant human MAO-A (Homo sapiens, UniProt P21397); test: Monoamine oxidase assay (Amplex Red), MAO-A; type: biochemical
T7 construct: purchased Sigma-Aldrich M7316; host or cells: baculovirus-infected insect cells
T7 sequence (P21397 1-527): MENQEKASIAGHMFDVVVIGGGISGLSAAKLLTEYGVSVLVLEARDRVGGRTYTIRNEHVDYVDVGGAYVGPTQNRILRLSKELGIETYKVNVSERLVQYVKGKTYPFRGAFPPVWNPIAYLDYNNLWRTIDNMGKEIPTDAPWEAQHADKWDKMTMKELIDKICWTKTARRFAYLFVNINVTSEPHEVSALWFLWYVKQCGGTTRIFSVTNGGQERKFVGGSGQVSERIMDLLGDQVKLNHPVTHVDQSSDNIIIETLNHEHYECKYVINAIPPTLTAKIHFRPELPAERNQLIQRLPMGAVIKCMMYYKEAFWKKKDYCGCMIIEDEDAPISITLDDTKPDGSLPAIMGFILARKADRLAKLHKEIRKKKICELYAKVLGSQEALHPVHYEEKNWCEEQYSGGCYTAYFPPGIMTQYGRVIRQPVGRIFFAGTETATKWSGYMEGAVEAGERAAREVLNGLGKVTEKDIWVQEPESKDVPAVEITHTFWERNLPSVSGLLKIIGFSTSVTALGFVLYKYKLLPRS
Method in brief: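 Inhibition was measured with an Amplex Red monoamine oxidase assay, using human MAO-A and MAO-B produced recombinantly in baculovirus-infected insect cells. For rat MAO-B, liver mitochondria-enriched fractions from male Sprague Dawley rats served as enzyme source.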

[10] = radioligand, ref Müller et al., 2000
[11] = Figure 3 and introduction, ref Drabczynska et al., Koch et al., Brunschweiger et al., 2014, 2016
[12] = Figure 3 and introduction, ref Drabczynska et al., 2007, Koch et al., Brunschweiger et al., 2014, 2016
[13] = human (h), Figure 3 and introduction, ref Drabczynska et al., 2007, Koch et al., 2013, Brunschweiger et al., 2014, 2016, read-out: A1 (Ki)

T1 sequence (P29274 whole entry): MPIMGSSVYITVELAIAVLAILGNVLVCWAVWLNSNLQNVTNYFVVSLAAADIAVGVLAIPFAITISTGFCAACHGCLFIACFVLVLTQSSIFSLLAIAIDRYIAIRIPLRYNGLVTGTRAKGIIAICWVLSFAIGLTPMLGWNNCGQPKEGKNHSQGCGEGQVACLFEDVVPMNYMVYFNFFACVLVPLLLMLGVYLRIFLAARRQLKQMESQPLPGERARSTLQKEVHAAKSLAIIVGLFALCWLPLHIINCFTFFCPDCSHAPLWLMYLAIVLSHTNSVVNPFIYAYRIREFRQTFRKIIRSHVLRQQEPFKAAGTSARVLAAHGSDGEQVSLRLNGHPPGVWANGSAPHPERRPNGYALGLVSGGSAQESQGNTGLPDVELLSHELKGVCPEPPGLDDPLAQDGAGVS
T2 sequence (P30543 whole entry): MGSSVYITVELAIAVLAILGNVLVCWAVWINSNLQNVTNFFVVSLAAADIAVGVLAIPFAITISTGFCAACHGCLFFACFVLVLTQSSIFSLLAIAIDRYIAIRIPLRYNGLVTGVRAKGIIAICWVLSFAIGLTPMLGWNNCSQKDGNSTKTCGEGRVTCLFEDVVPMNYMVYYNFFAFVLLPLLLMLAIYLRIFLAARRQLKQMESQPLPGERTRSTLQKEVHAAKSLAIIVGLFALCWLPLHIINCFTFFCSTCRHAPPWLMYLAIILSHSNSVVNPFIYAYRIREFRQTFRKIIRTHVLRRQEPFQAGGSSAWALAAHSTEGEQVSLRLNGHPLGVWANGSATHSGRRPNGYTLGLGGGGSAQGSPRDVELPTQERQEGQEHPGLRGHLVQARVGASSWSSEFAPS

C#CCn1c(=O)c2c(nc(C=Cc3cccc(OC)c3)n2C)n(CCCO)c1=O [[^3H]MSX-2, [^3H]3-(3-hydroxypropyl)-7-methyl-8-(m-methoxystyryl)-1-propargylxanthine]
Kd [1, 10]: 7.3 nM | Kd [2, 10]: 8 nM

Cn1c(=O)c2c(nc3n2CCN(Cc2cc(F)c(Cl)cc2Cl)C3)n(C)c1=O [Compound 10a, 8-(2,4-dichloro-5-fluorobenzyl)-1,3-dimethyl-6,7,8,9-tetrahydropyrazino[2,1-f]purine-2,4(1H,3H)-dione]
Ki [1, 11]: 268 nM | IC50 [3, 12]: 508 nM | Ki [4, 13]: 217 nM

O=C(CCCc1ccccc1)Nc1nc2ccccc2c(=O)s1 [Compound 6, N-(4-oxo-4H-3,1-benzothiazin-2-yl)-4-phenylbutanamide]
Ki ([5]; human (h), Figure 2, ref Chen et al., 2002, Stössel et al., 2013): > 1000 nM | Ki ([6]; Figure 2, ref Chen et al., 2002, Stössel et al., 2013, Mihara et al., 2007, read-out: A3 (Ki)): > 1000 nM

[^3H]8-(4-[4-(4-chlorophenyl)piperazine-1-sulfonyl]phenyl)-1-propyl-2,3,6,7-tetrahydro-1H-purine-2,6-Dione [[^3H]PSB-603]
Kd ([5]; radioligand, ref Borrmann et al., 2009): 0.41 nM

Cn1c(=O)c2c(nc(-c3ccc(C(=O)Nc4ccccc4)cc3)n2C)n(C)c1=O [PX-D-P6]
Ki ([1]; Figure 2 and introduction, ref Chen et al., 2002, Wang et al., 2017, Stössel et al., Mihara et al.): 330 nM | IC50 ([3]; Figure 2 and introduction, ref Chen et al., 2002, Pretorius et al., 2008, Wang et al., 2017, Stössel et al.): 260 nM and 290 nM | effect in haloperidol-induced catalepsy model [7]: anti-cataleptic effects

COc1ccccc1CN1CCCn2c1nc1c2c(=O)n(C)c(=O)n1C [Compound 9b]
Ki [1, 11]: 417 nM | IC50 [3, 12]: 1800 nM | Ki [4, 13]: 605 nM

Cn1c(=O)c2c(nc3n2CCN(Cc2ccc(Cl)c(Cl)c2)C3)n(C)c1=O [Compound 10b, 8-(3,4-Dichlorobenzyl)-1,3-dimethyl-6,7,8,9-tetrahydropyrazino[2,1-f]purine-2,4(1H,3H)-dione]
IC50 [8]: 260 nM | Ki ([2]; rat (r), Figure 3 and introduction, ref Brunschweiger et al., 2014, 2016): 322 nM

Cn1c(=O)c2c(nc(C=Cc3cccc(Cl)c3)n2C)n(C)c1=O [CSC, 8-m-Chlorostyrylcaffeine]
inhibition at 10 µM ([9]; at 10,000 nM, read-out: % inhibition at indicated concentration, Human MAO-A): 23% | IC50 ([9]; n = 3, read-out: IC50 ± SEM, Human MAO-A): > 10000 nM | Ki ([6]; standard antagonists, ref Müller and Jacobson (2011), Brunschweiger et al. (2014), read-out: Ki, A3 vs. [^3H]PSB-11): > 10000 nM | % inhibition of radioligand binding at indicated concentration, A1 vs. [^3H]CCPA ([4]; at 10,000 nM, ref Müller and Jacobson (2011), Brunschweiger et al. (2014)): 14% | Ki ([4]; read-out: Ki, A1 vs. [^3H]CCPA, standard antagonists, ref Müller and Jacobson (2011), Brunschweiger et al. (2014)): > 10000 nM

Cc1ccc(-c2cc(-c3cccc(C(=O)N4CCCCC4)c3)nc(N)n2)o1 [Compound 8]
effect in haloperidol-induced catalepsy model [7]: in vivo efficacy

[^3H](R)-8-ethyl-4-methyl-2-(phenyl)1,4,7,8-tetrahydro-5H-imidazo[2,1-i]purin-5-one [[^3H]PSB-11]
Kd ([6]; radioligand, ref Müller et al., 2002): 4.9 nM
